Experimental data from patent publication US12589158B2 (priority 2022, dated 2026).
Where two headings read alike, the source gives them in different places.

Experiments:
[1] = Pharmacokinetics following single administration in SD rat; parameters: species or system SD rats; details: in vivo, sc, 50 nmol/kg
Procedure: The compound is administrated to male SD rats (230-268 g, n=3) at a dose of 50.0 nmol/kg (s.c.) or 25.0 nmol/kg (i.v.). […] 30.0 μL of thawed plasma sample is taken. 150 μL of acetonitrile solution (containing 5 ng mL^−1 Verapamil, 50 ng·mL^−1 Glibenclamide, 200 ng·mL^−1 Tolbutamide and 200 ng·mL^−1 Diclofenac) are added to precipitate protein. The mixture is vortexed for 5 minutes, and centrifuged at 3700 rpm for 8 minutes. 70.0 μL of the supernatant is taken, into which 70.0 μL of 0.5% aqueous formic acid solution is added. The mixture is vortexed for 5 minutes. 15 μL of the mixture solution is sampled and injected into the LC-MS/MS to determine the drug concentration in plasma. 20.0 μL of thawed plasma sample is taken. 60 μL of acetonitrile solution (containing 5 ng mL^−1 Verapamil, 50 ng·mL^−1 Glibenclamide, 200 ng·mL^−1 Tolbutamide and 200 ng·mL^−1 Diclofenac) are added to precipitate protein. […] The mixture is vortexed for 10 minutes. 10.0 μL of the mixture solution is sampled and injected into the LC-MS/MS to determine the drug concentration in plasma. 30.0 μL of thawed plasma sample is taken. 150 μL of acetonitrile solution (containing 5 ng mL^−1 Verapamil, 50 ng mL^−1 Glibenclamide, 200 ng·mL^−1 Tolbutamide and 200 ng·mL^−1 Diclofenac) are added to precipitate protein. The mixture is vortexed for 5 minutes, and centrifuged at 3700 rpm for 8 minutes. 70.0 μL of the supernatant is taken, into which 70.0 μL of 0.5% aqueous formic acid solution is added. The mixture is vortexed for 5 minutes. 10.0 μL of the mixture solution is sampled and injected into the LC-MS/MS to determine the drug concentration in plasma.

[2] = Pharmacokinetics in C57 mice; details: in vivo
Procedure: After subcutaneous or intravenous administration to C57 mice, plasma is collected and the drug concentration in plasma is determined to illustrate the in vivo pharmacokinetic properties of the compound according to the present invention. […] 20.0 μL of thawed plasma sample is taken. 20 μL of 50% aqueous methanol solution (containing 100 ng mL^−1 internal standard) and 60 μL of acetonitrile are added sequentially to precipitate protein. The mixture is vortexed for 5 minutes, and centrifuged at 3700 rpm for 8 minutes. 50.0 μL of the supernatant is taken, into which 50.0 μL of 0.5% aqueous formic acid solution is added. The mixture is vortexed for 5 minutes. 50 μL of the mixture solution is sampled and injected into the LC-MS/MS to determine the drug concentration in plasma.

[3] = Pharmacokinetics in cynomolgus monkeys; details: cynomolgus monkey, in vivo
Procedure: After subcutaneous or intravenous administration to cynomolgus monkeys, plasma is collected and the drug concentration in plasma is determined to illustrate the in vivo pharmacokinetic properties of the compound according to the present invention. The compound is dissolved in 1.4% PG in 8 mM Na2HPO4 Buffer (pH 7.39), and filtered through a filter membrane (PTFE, 0.45 μm) to obtain 25 and 12.5 nmol/mL solution of the compound respectively. The obtained solutions are administered to cynomolgus monkeys (4-8 kg) at a dose of 25 nmol/kg subcutaneously (s.c.) or 12.5 nmol/kg intravenously (i.v.). […] The blood samples are centrifuged at 2200 g for 10 minutes to obtain a plasma, which is stored at −90° C. to −60° C. for further analysis and assay.
70.0 μL of thawed plasma sample is taken. 70 μL of acetonitrile (containing 1 ng/ml of the internal standard) is added to precipitate protein. The mixture is vortexed for 1 minute, and centrifuged at 14000 rpm for 10 minutes. 60.0 μL of the supernatant is taken, into which 60.0 μL of 0.5% aqueous formic acid solution is added. The mixture is vortexed for 5 minutes. 10 μL of the mixture solution is sampled and injected into the LC-MS/MS to determine the drug concentration in plasma.
Based on the drug concentration in plasma of the compounds in the cynomolgus monkeys, the pharmacokinetic parameters are calculated by applying the software Winnolin 8.2 in a non-compartmental model, and the results are shown in Table 9 and Table 10 below.

[4] = assay type: in vivo; details: rat, in vivo, male SD rats
Procedure: (§1) 77 SD male rats (SPF grade) are selected and randomly divided into 10 groups based on body weight. Group 1 is the vehicle control group, including 5 animals. […] Group 5 to Group 7 are the groups administrated with the test substance 1; and Group 8 to Group 10 are the groups administrated with the test substance 2, each group including 8 animals, wherein 5 animals for primary test, and 3 animals for toxicokinetics test, and the administration dose is 1, 3 and 10 mg/kg respectively. Each of the above groups is continuously administered twice a week for 2 weeks (administrating at Day 1, Day 5, Day 8, Day 12 and Day 15).
(§2) During the experiment, the cage condition monitoring, detailed clinical observations, determination of the food consumption, determination of body weight, measurement of the blood biochemical and hematology indicator, investigation of the gross anatomy, weighing of the organ, studying on toxicokinetic are performed on all the groups of the animals.
(§3) Original data during each time period is tabulated. The average values and standard deviations and/or group change are calculated for each assay endpoint based on the group and sex. For each endpoint, the administrated group will be compared with the control group in the following aspect. A logarithmic conversion is performed to the endpoint data as desired prior to the start of the specific analyses.

[5] = system: SD male rats; assay type: in vivo; details: for Toxicokinetic: Cmax and AUC versus dose: male SD rats, 1, 3, 10 mg/kg; for Toxicokinetic: accumulation: male SD rats, continuously administered twice a week for 2 weeks; for Safety Window (based on dosage): rat MTD for 2 weeks vs efficacy dose in db/db mice; for Safety Window (based on exposure AUClast) / dose at which decrease of the body weight is observed after the first administration: rat, in vivo
Procedure: as §1, §2, §3

[6] = in vivo
[7] = continuously administered twice a week for 2 weeks

Compound `CC[C@H](C)[C@H](NC(=O)C(C)(C)NC(=O)[C@H](Cc1ccc(O)cc1)NC(=O)[C@H](CC(=O)O)NC(=O)[C@H](CO)NC(=O)[C@@H](NC(=O)C(C)(Cc1ccccc1)NC(=O)[C@@H](NC(=O)CNC(=O)[C@H](CCC(=O)O)NC(=O)C(C)(C)NC(=O)[C@@H](N)Cc1ccc(O)cc1)[C@@H](C)O)[C@@H](C)O)C(=O)NC(C)(C)C(=O)N[C@@H](CC(C)C)C(=O)N[C@@H](CC(=O)O)C(=O)N[C@@H](CCCCN)C(=O)N[C@@H](CCC(N)=O)C(=O)N[C@@H](C)C(=O)N[C@@H](CCC(N)=O)C(=O)N[C@@H](C)C(=O)N[C@@H](CCC(=O)O)C(=O)N[C@@H](Cc1ccccc1)C(=O)N[C@H](C(=O)N[C@@H](CCCCNC(=O)COCCOCCNC(=O)COCCOCCNC(=O)CC[C@H](NC(=O)CCCCCCCCCCCCCCCCCCCCC(=O)O)C(=O)O)C(=O)N[C@@H](Cc1c[nH]c2ccccc12)C(=O)N[C@@H](CC(C)C)C(=O)N[C@@H](CC(C)C)C(=O)N[C@@H](CCCCN)C(=O)NCC(=O)NCC(=O)N1CCC[C@H]1C(=O)N[C@@H](CO)C(=O)N[C@@H](CO)C(=O)NCC(=O)N[C@@H](C)C(=O)N1CCC[C@H]1C(=O)N1CCC[C@H]1C(=O)N1CCC[C@H]1C(=O)N[C@@H](CO)C(=O)N[C@@H](CCCCN)C(N)=O)C(C)C` (some centres unmarked) [P014] has an MRT inf [1] of 30 ± 1.01 h, an MRT last [1] of 26.2 ± 0.781 h and an MRT inf ([2]; mouse, iv) of 19.2 h. The MRT last ([2]; mouse, iv) was 15.7 h, the MRT inf ([2]; mouse, sc) was 30.3 h and the MRT last ([2]; mouse, sc) was 22.9 h. The MRT inf ([3]; sc, 25 nmol/kg) was 77.4 ± 13.5 h, the MRT last ([3]; sc, 25 nmol/kg) was 74.2 ± 13.8 h and the MTD ([4]; MTD for 2 weeks, twice a week) was 1.98 µmol/kg. The MTD [4, 7] was over 10 mg/kg, the “Toxicokinetic: Cmax and AUC versus dose” value [5] was “increase nearly proportionally to the dose” and the “Toxicokinetic: accumulation” value [5] was “no substantial accumulation”. For the same compound, the “Safety Window (based on dosage)” value [5] was 1319, the “Safety Window (based on exposure AUClast)” value [5] was 596 and the “dose at which decrease of the body weight is observed after the first administration” value [5] was at least 1 mg/kg.
In the case of `CC[C@H](C)[C@H](NC(=O)[C@H](CC(C)C)NC(=O)[C@H](Cc1c[nH]c2ccccc12)NC(=O)[C@H](CCC(N)=O)NC(=O)[C@@H](NC(=O)[C@H](Cc1ccccc1)NC(=O)[C@H](C)NC(=O)[C@H](CCCCNC(=O)COCCOCCNC(=O)COCCOCCNC(=O)CC[C@H](NC(=O)CCCCCCCCCCCCCCCCCCC(=O)O)C(=O)O)NC(=O)[C@H](CCC(N)=O)NC(=O)[C@H](C)NC(=O)[C@@H](NC(=O)[C@H](CCCCN)NC(=O)[C@H](CC(=O)O)NC(=O)[C@H](CC(C)C)NC(=O)C(C)(C)NC(=O)[C@@H](NC(=O)[C@H](CO)NC(=O)[C@H](Cc1ccc(O)cc1)NC(=O)[C@H](CC(=O)O)NC(=O)[C@H](CO)NC(=O)[C@@H](NC(=O)[C@H](Cc1ccccc1)NC(=O)[C@@H](NC(=O)CNC(=O)[C@H](CCC(=O)O)NC(=O)C(C)(C)NC(=O)[C@@H](N)Cc1ccc(O)cc1)[C@@H](C)O)[C@@H](C)O)[C@@H](C)CC)[C@@H](C)CC)C(C)C)C(=O)N[C@@H](C)C(=O)NCC(=O)NCC(=O)N1CCC[C@H]1C(=O)N[C@@H](CO)C(=O)N[C@@H](CO)C(=O)NCC(=O)N[C@@H](C)C(=O)N1CCC[C@H]1C(=O)N1CCC[C@H]1C(=O)N1CCC[C@H]1C(=O)N[C@@H](CO)C(N)=O` [Tirzepatide], the AUC(0-inf) ([1]; male, SD) is reported as 3.67 ± 1.19 µM·h, the AUC(0-t) ([1]; male, SD) is reported as 3.61 ± 1.2 µM·h and the Cmax ([1]; male, SD) is reported as 128 ± 42.8 nM. For the same compound, the MRT inf ([1]; male, SD) was 20.3 ± 0.755 h, the MRT last ([1]; male, SD) was 19 ± 0.265 h and the Tmax ([1]; male, SD) was 7.33 ± 1.15 h. The half-life ([1]; male, SD) was 11.4 ± 1.79 h, the AUC(0-inf) ([2]; C57, mouse, iv) was 12800 ng·h/mL and the AUC(0-t) ([2]; C57, mouse, iv) was 12700 ng·h/mL. The C0 ([2]; C57, mouse, iv) was 1900 ng/mL, the MRT inf ([2]; C57, mouse, iv) was 12 h and the MRT last ([2]; C57, mouse, iv) was 11.4 h. The half-life ([2]; C57, mouse, iv) was 10.5 h, the AUC(0-inf) ([2]; C57, mouse, sc) was 19700 ng·h/mL and the AUC(0-t) ([2]; C57, mouse, sc) was 19400 ng·h/mL. For the same compound, the Cmax ([2]; C57, mouse, sc) was 871 ng/mL, the MRT inf ([2]; C57, mouse, sc) was 15.3 h and the MRT last ([2]; C57, mouse, sc) was 14.5 h. For the same compound, the Tmax ([2]; C57, mouse, sc) was 6 h, the half-life ([2]; C57, mouse, sc) was 9.21 h and the AUC(0-inf) ([3]; iv, 12.5 nmol/kg) was 58500 ± 11900 ng·h/mL. For the same compound, the AUC(0-t) ([3]; iv, 12.5 nmol/kg) was 57600 ± 11800 ng·h/mL, the C0 ([3]; iv, 12.5 nmol/kg) was 1170 ± 160 ng/mL and the MRT inf ([3]; iv, 12.5 nmol/kg) was 74.3 ± 8.76 h. The MRT last ([3]; iv, 12.5 nmol/kg) was 68.3 ± 8.61 h, the half-life ([3]; iv, 12.5 nmol/kg) was 59.5 ± 5.22 h and the AUC(0-inf) ([3]; sc, 25 nmol/kg) was 150000 ± 39100 ng·h/mL. For the same compound, the AUC(0-t) ([3]; sc, 25 nmol/kg) was 148000 ± 38200 ng·h/mL, the Cmax ([3]; sc, 25 nmol/kg) was 1300 ± 300 ng/mL and the MRT inf ([3]; sc, 25 nmol/kg) was 105 ± 7.58 h. It also gave an MRT last ([3]; sc, 25 nmol/kg) of 99.6 ± 6.26 h, a Tmax ([3]; sc, 25 nmol/kg) of 22.7 ± 10.1 h and a half-life ([3]; sc, 25 nmol/kg) of 62.5 ± 6.07 h. For the same compound, the MTD ([4]; MTD for 2 weeks, twice a week) was 2.08 µmol/kg, the MTD [4, 7] was over 10 mg/kg and the “Toxicokinetic: Cmax and AUC versus dose” value [5] was “increase nearly proportionally to the dose”. For the same compound, the “Toxicokinetic: accumulation” value [5] was “no substantial accumulation”, the “Safety Window (based on dosage)” value [5] was 416 and the “Safety Window (based on exposure AUClast)” value [5] was 130. The “dose at which decrease of the body weight is observed after the first administration” value [5] was at least 3 mg/kg and the “heart rate recovery time” value [6] was over 120 h.
